Measurements as given in ChEMBL document CHEMBL1138423, “TOMOCOMD-CARDD descriptors-based virtual screening of tyrosinase inhibitors: evaluation of different classification model combinations using bond-based linear indices” (Bioorg Med Chem, 2007).

The compounds below were run against T1, Tyrosinase (Agaricus bisporus, UniProt O42713) (assay: Inhibition of mushroom tyrosinase after 10 mins).
T1 sequence (O42713 whole entry): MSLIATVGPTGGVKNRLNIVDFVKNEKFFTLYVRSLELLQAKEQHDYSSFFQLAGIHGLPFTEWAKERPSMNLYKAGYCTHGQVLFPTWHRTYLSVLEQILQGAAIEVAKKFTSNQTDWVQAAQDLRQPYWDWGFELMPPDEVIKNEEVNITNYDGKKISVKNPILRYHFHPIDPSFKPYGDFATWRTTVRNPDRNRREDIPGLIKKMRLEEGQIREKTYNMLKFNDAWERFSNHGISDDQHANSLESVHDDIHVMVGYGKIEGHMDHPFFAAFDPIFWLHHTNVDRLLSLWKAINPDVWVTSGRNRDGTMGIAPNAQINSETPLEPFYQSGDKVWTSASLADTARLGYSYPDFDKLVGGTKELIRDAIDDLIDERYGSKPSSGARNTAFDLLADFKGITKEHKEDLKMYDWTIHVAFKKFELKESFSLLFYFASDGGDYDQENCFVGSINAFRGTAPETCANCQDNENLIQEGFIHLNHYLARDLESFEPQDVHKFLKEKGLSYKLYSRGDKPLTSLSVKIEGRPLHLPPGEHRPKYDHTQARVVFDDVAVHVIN

Compound | IC50 [µM]
CC[C@]1(O)CC[C@H]2[C@@H]3CCC4=CC(=O)C=C[C@]4(C)[C@H]3CC[C@@]21C | 3.46
CC[C@]1(O)CC[C@H]2[C@@H]3CCC4=CC(=O)CC[C@]4(C)[C@H]3[C@H](O)C[C@@]21C | 1.72
CC[C@]1(O)CC[C@H]2[C@@H]3CCC4=CC(=O)CC[C@]4(C)[C@H]3CC[C@@]21C | 1.53
C#CC1(O)CC[C@H]2[C@@H]3CCC4=CC(=O)C=C[C@]4(C)[C@H]3CC[C@@]21C (single isomer, unassigned) | 7.89
C#CC1(O)CC[C@H]2[C@@H]3CCC4=CC(=O)CC[C@]4(C)[C@H]3[C@H](O)C[C@@]21C (single isomer, unassigned) | 5.95
C#CC1(O)CC[C@H]2[C@@H]3CCC4=CC(=O)CC[C@]4(C)[C@H]3CC[C@@]21C (single isomer, unassigned) [ETHISTERONE] | 2.61
